The test addresses Mtb ThyX (Mycobacterium tuberculosis, UniProt P9WG57). Nature of the test: M. tuberculosis ThyX NADPH oxidase assay. Format: biochemical. The conditions noted are these: for inhibition at 50 µM: screening hits (Figure 1), read-out: % inhibition (ThyX).
Setting [1] is: 200 μM compound, NADPH oxidase assay, 50 µM FAD.
Setting [2] is: 200 µM, screening of in-house compound libraries, read-out: ThyX inhibitory effect.
Setting [3] is: 200 μM compound, NADPH oxidase assay, 50 µM FAD, read-out: Inhibition % (Mtb ThyX).

Where two headings read alike, the source gives them in different places.

Mtb ThyX, sequence (P9WG57 whole entry): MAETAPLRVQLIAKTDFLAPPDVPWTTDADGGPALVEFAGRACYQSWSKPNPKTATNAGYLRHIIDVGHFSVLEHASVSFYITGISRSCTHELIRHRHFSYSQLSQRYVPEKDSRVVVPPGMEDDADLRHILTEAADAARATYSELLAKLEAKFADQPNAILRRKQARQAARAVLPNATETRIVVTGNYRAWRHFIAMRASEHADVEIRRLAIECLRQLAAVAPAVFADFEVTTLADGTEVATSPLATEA

In the case of “1-[[p-(Dimethoxyphosphorylmethyl)phenyl]methyl]-3-(4-fluorophenyl)purino [9,8-a]pyridine-2,4-dione [Compound 13f]”, the “Inhibition % (Mtb ThyX)” value under setting [1] was 5.6%.
On the same count and under the same terms, the same measure for “3-(p-Fluorophenyl)-8-hept-1-ynyl-1H-purino [9,8-a]pyridine-2,4-dione [Compound 20d]”: 0%; for “3-(p-Fluorophenyl)-8-hex-1-ynyl-1H-purino [9,8-a]pyridine-2,4-dione [Compound 20c]”: 18.6%.
Consider `Cc1ccn2c(c1)nc1c(-c3ccc(OC(F)(F)F)cc3)nc(C(F)(F)F)nc12` [Compound 5], for which the inhibition at 50 µM stood at 13.2%. Further, under setting [2], the inhibition at 200 µM was determined as 23.1%.
As to `OB(O)c1ccc(Sc2nc(C(F)(F)F)nc3c2nc2ccccn23)cc1` [Compound 6], the inhibition at 50 µM was 17.1%. Also, the inhibition at 200 µM under setting [2] is 33.2%.
For `O=c1[nH]c2c(nc3ccccn32)c(=O)n1-c1ccc(Br)cc1` [Compound 9c, 3-(4-Bromophenyl)pyrido [1,2-e]purine-2,4(1H,3H)-dione], under setting [3], the inhibition at 200 µM came out at 52.2%.
As for `O=c1[nH]c2c(nc3ccccn32)c(=O)n1-c1ccc(C(F)(F)F)cc1` [Compound 9e, 3-(4-(Trifluoromethyl)phenyl)pyrido [1,2-e]purine-2,4(1H,3H)-dione], the inhibition at 200 µM under setting [3] was 31.7%.
Same read-out and setting: the result for `COc1ccc(-n2c(=O)[nH]c3c(nc4ccccn43)c2=O)cc1` [Compound 9f, 3-(p-Methoxyphenyl)pyrido [1,2-e]purine-2,4(1H,3H)-dione] reads 8.1%.
On the same count and under the same terms, the result for `O=c1[nH]c2c(nc3ccccn32)c(=O)n1-c1cccc(F)c1` [Compound 9g, 3-(3-Fluorophenyl)pyrido [1,2-e]purine-2,4(1H,3H)-dione] reads 12.8%; that for `O=c1[nH]c2c(nc3ccccn32)c(=O)n1-c1ccc(F)c(F)c1` [Compound 9h, 3-(3,4-Difluorophenyl)pyrido [1,2-e]purine-2,4(1H,3H)-dione], 22.7%; that for `O=c1[nH]c2c(nc3ccccn32)c(=O)n1-c1ccc(F)cc1F` [Compound 9i, 3-(2,4-Difluorophenyl)pyrido [1,2-e]purine-2,4(1H,3H)-dione], 6.6%.
The same measure, in the same setting: the same measure for `Cc1ccc(-n2c(=O)[nH]c3c(nc4ccccn43)c2=O)cc1C` [Compound 9j, 3-(3,4-Dimethylphenyl)pyrido [1,2-e]purine-2,4(1H,3H)-dione]: 19.9%; for `O=c1[nH]c2c(nc3ccccn32)c(=O)n1Cc1ccccc1` [Compound 10a, 3-(Benzyl)pyrido [1,2-e]purine-2,4(1H,3H)-dione]: 22.3%.
With `O=c1[nH]c2c(nc3ccccn32)c(=O)n1Cc1ccc(F)cc1` [Compound 10b, 3-(p-Fluorobenzyl)pyrido [1,2-e]purine-2,4(1H,3H)-dione], under setting [3], the inhibition at 200 µM stood at 21.2%.
The same measure, in the same setting: the result for `O=c1[nH]c2c(nc3ccccn32)c(=O)n1Cc1ccc(C(F)(F)F)cc1` [Compound 10c, 3-(p-(Trifluoromethyl)benzyl)pyrido [1,2-e]purine-2,4(1H,3H)-dione] reads 20.7%.
As to `Cc1ccc(Cn2c(=O)[nH]c3c(nc4ccccn43)c2=O)cc1` [Compound 10d, 3-(p-Methylbenzyl)pyrido [1,2-e]purine-2,4(1H,3H)-dione], the inhibition at 200 µM under setting [3] is 20.2%.
Regarding `O=c1c2nc3ccccn3c2[nH]c(=S)n1-c1ccc(F)cc1` [Compound 11, 3-(4-Fluorophenyl)-2-thioxo-2,3-dihydropyrido [1,2-e]purin-4(1H)-one], the inhibition at 200 µM under setting [3] was determined as 19.8%.
On the same count and under the same terms, the same measure for `O=c1c2nc3ccccn3c2[nH]c(=S)n1Cc1ccccc1` [Compound 12, 3-Benzyl-2-thioxo-2,3-dihydropyrido [1,2-e]purin-4(1H)-one]: 0%.
The same measure, in the same setting: the same measure for `O=c1c2nc3ccccn3c2n(Cc2ccccc2)c(=O)n1-c1ccc(F)cc1` [Compound 13a, 1-Benzyl-3-(4-fluorophenyl)purino [9,8-a]pyridine-2,4-dione]: 23.2%.
Still for that read-out and setting: the result for `Cc1ccc(Cn2c(=O)n(-c3ccc(F)cc3)c(=O)c3nc4ccccn4c32)cc1` [Compound 13b, 3-(p-Fluorophenyl)-1-[(p-methylphenyl)methyl]purino[9,8-a]pyridine-2,4-dione] reads 10.9%.
`N#Cc1ccc(Cn2c(=O)n(-c3ccc(F)cc3)c(=O)c3nc4ccccn4c32)cc1` [Compound 13c, 4-[[3-(p-Fluorophenyl)-2,4-dioxo-purino[9,8-a]pyridin-1-yl]methyl]benzonitrile]: the inhibition at 200 µM under setting [3] came to 26.5%.
The same measure, in the same setting: the result for `O=c1c2nc3ccccn3c2n(Cc2ccc([N+](=O)[O-])cc2)c(=O)n1-c1ccc(F)cc1` [Compound 13d, 3-(p-Fluorophenyl)-1-[(p-nitrophenyl)methyl]purino [9,8-a]pyridine-2,4-dione] reads 0%.
Still for that read-out and setting: the result for `COC(=O)c1ccc(Cn2c(=O)n(-c3ccc(F)cc3)c(=O)c3nc4ccccn4c32)cc1` [Compound 13e, Methyl 4-[[3-(p-fluorophenyl)-2,4-dioxo-purino [9,8-a]pyridin-1-l]methyl]benzoate] reads 44.8%; that for `Cc1ccn2c(c1)nc1c(=O)n(-c3ccc(F)cc3)c(=O)[nH]c12` [Compound 18a, 3-(p-Fluorophenyl)-7-methylpyrido [1,2-e]purine-2,4(1H,3H)-dione], 45.8%; that for `Cc1ccc2nc3c(=O)n(-c4ccc(F)cc4)c(=O)[nH]c3n2c1` [Compound 18b, 3-(p-Fluorophenyl)-8-methylpyrido [1,2-e]purine-2,4(1H,3H)-dione], 13.2%.
Still for that read-out and setting: the result for `O=c1[nH]c2c(nc3cc(Br)ccn32)c(=O)n1-c1ccc(F)cc1` [Compound 19a, 7-Bromo-3-(p-fluorophenyl)pyrido [1,2-e]purine-2,4(1H,3H)-dione] reads 8.8%.
With `O=c1[nH]c2c(nc3ccc(Br)cn32)c(=O)n1-c1ccc(F)cc1` [Compound 19b, 8-Bromo-3-(p-fluorophenyl)pyrido [1,2-e]purine-2,4(1H,3H)-dione], under setting [3], the inhibition at 200 µM was 5.4%.
Regarding `O=c1[nH]c2c(nc3cc(C#CCCc4ccccc4)ccn32)c(=O)n1-c1ccc(F)cc1` [Compound 20a, 3-(p-Fluorophenyl)-7-(4-phenylbut-1-ynyl)-1H-purino [9,8-a]pyridine-2,4-dione], the inhibition at 200 µM under setting [3] was determined as 32%.
With `CCCc1ccc(C#Cc2ccn3c(c2)nc2c(=O)n(-c4ccc(F)cc4)c(=O)[nH]c23)cc1` [Compound 20b, 3-(p-Fluorophenyl)-7-[2-(4-propylphenyl)ethynyl]-1H-purino [9,8-a]pyridine-2,4-dione], the inhibition at 200 µM under setting [3] stood at 0%.
On the same count and under the same terms, the result for `CCCCCCC#Cc1ccn2c(c1)nc1c(=O)n(-c3ccc(F)cc3)c(=O)[nH]c12` [Compound 20e, 3-(p-Fluorophenyl)-7-oct-1-ynyl-1H-purino [9,8-a]pyridine-2,4-dione] reads 45.1%; that for `CCCCCCCC(=O)NCC#Cc1ccn2c(c1)nc1c(=O)n(-c3ccc(F)cc3)c(=O)[nH]c12` [Compound 20f, N-[3-[3-(p-fluorophenyl)-2,4-dioxo-1H-purino [9,8-a]pyridin-7-yl]prop-2-ynyl]octanamide], 18.8%.

Source of the values: publication PMC9571937, “Synthesis and Structure–Activity Relationship Studies of Pyrido [1,2-e]Purine-2,4(1H,3H)-Dione Derivatives Targeting Flavin-Dependent Thymidylate Synthase in Mycobacterium tuberculosis” (Molecules, 2022).
